Laboratory results taken from PMC3841161, “De Novo Design and Synthesis of Ultra-Short Peptidomimetic Antibiotics Having Dual Antimicrobial and Anti-Inflammatory Activities” (PLoS ONE, 2013).
Residues, ends and D or L forms follow the SMILES beside them. No end group written: not given here.

Assays:
[1] = test system: S. aureus [KCTC 1621]; assay type: cell-based, Staphylococcus aureus; conditions: KCTC 1621, 20 h
Description: (§1) The antimicrobial activity of the peptides against two Gram-positive bacterial strains and two Gram-negative bacterial strains was examined using the broth microdilution method in sterile 96-well plates. Aliquots (100 µL) of a bacterial suspension at 2×10^6 colony-forming units (CFU)/mL in 1% peptone were added to 100 µL of the peptide solution (serial two-fold dilutions in 1% peptone). After incubation for 18−20 h at 37°C, bacterial growth inhibition was determined by measuring the absorbance at 600 nm with a Microplate Autoreader EL 800 (Bio-Tek Instruments, VT). The minimal inhibitory concentration (MIC) was defined as the minimum peptide concentration inhibited bacteria growth. Two types of Gram-positive bacteria (S. epidermidis [KCTC 1917] and S. aureus [KCTC 1621]) and two types of Gram-negative bacteria (E. coli [KCTC 1682] and P. aeruginosa [KCTC 1637]) were procured from the Korean Collection for Type Cultures (KCTC) at the Korea Research Institute of Bioscience and Biotechnology (KRIBB). MRSA samples (CCARM 3089, CCARM 3090, and CCARM 3095) were obtained from the Culture Collection of Antibiotic-Resistant Microbes (CCARM) at Seoul Women's University (Seoul, Korea).

[2] = test system: S. epidermidis [KCTC 1917]; assay type: cell-based, Staphylococcus epidermidis; conditions: KCTC 1917, 20 h
Description: as §1

[3] = test system: E. coli [KCTC 1682]; assay type: cell-based, Escherichia coli; conditions: KCTC 1682, 20 h
Description: as §1

[4] = test system: hRBCs versus four bacterial strains; assay: Prokaryotic selectivity (therapeutic index, HC10/GM); conditions: ratio of HC10 to GM; 512 µg/mL used for HC10 >256 and 128 µg/mL for MIC >64
Description: (§2) The prokaryotic selectivity of our designed HDAMPs is defined by the therapeutic index (TI) as a measure of the relative safety of the drug. It is a measure of a peptide's capability to differentiate any pathogen from a host cell. The TI value of each peptide was calculated as the ratio of the HC10 (the peptide concentration that produces 10% hemolysis toward hRBCs) to the geometric mean [GM; the geometric mean of the minimal inhibitory concentration (MIC) against four selected bacterial strains]. Larger values of TI correspond to greater prokaryotic selectivity.

[5] = test system: trypsin; assay: Protease stability by RP HPLC; assay type: in vitro ADME; conditions: 5 µL of 10 mg/mL peptide in 25 µL of 0.2-µg/mL trypsin in PBS, 37°C, 0, 0.5, 1.0, 2.0 and 4 h; C18 RP-HPLC, 224 nm
Description: Five microliters of an aqueous peptide stock solution (10 mg/mL) were added to 25 µL of the 0.2-µg/mL trypsin solution in PBS, respectively, and incubated at 37°C for 0, 0.5, 1.0, 2.0, and 4 h. The 5-µL solution was taken out at each time interval and immediately frozen with liquid nitrogen. Individually thawed samples were loaded onto a C18 reverse-phase column for HPLC analysis (5 µm; 4.6 mm ×250 mm; Vydac). Peptides were eluted by a 60-min linear gradient of 0–90% (v/v) acetonitrile in water containing 0.05% (v/v) trifluoroacetic acid with a flow rate of 1 mL/min and detection of 224 nm.

[6] = test system: P. aeruginosa [KCTC 1637]; assay type: cell-based, Pseudomonas aeruginosa; conditions: KCTC 1637, 20 h
Description: as §1

[7] = test system: MRSA 3 [CCARM 3095]; assay type: cell-based, methicillin-resistant Staphylococcus aureus; conditions: CCARM 3095, 20 h
Description: as §1

[8] = test system: MRSA 2 [CCARM 3090]; assay type: cell-based, methicillin-resistant Staphylococcus aureus; conditions: CCARM 3090, 20 h
Description: as §1

[9] = test system: MRSA 1 [CCARM 3089]; assay type: cell-based, methicillin-resistant Staphylococcus aureus; conditions: CCARM 3089, 20 h
Description: as §1

[10] = test system: four bacterial strains (E. coli, P. aeruginosa, S. epidermidis, S. aureus); assay type: cell-based; conditions: 20 h
Description: as §2, §1

[11] = test system: trypsin; assay: Protease stability by radial diffusion assay; assay type: in vitro ADME; conditions: 5 µL of 10 mg/mL peptide in 25 µL of 0.2-µg/mL trypsin in PBS, 37°C, text: 24 h, method: 6 h
Description: E. coli (KCTC 1682) was grown overnight for 18 h at 37°C in 10 mL of LB broth, and then 10 µl of this culture was inoculated into 10 mL of fresh LB and incubated for an additional 3 h at 37°C to obtain mid-logarithmic-phase organisms. For the radial diffusion assay method, a bacteria suspension (2×10^6 CFU/mL in LB) was mixed with 0.7% agarose. The mixture was poured into a 10-cm petri dish after rapidly dispersing. Five microliters of an aqueous peptide stock solution (10 mg/mL) were added to 25 µL of the 0.2-µg/mL trypsin solution in PBS, respectively, and incubated at 37°C for 6 h. The reaction was stopped by freezing with liquid nitrogen, and then 10-µL aliquots were placed in each circle paper (≈6 mm in diameter) put on the agarose plates and then incubated at 37°C overnight. The diameters of the bacterial clearance zones surrounding the circle paper were measured for the quantitation of inhibitory activities.

Molecule	Minimal Inhibitory Concentration (MIC) S. aureus [KCTC 1621] [1]	Minimal Inhibitory Concentration (MIC) S. epidermidis [KCTC 1917] [2]	Minimal Inhibitory Concentration (MIC) E. coli [KCTC 1682] [3]	TI (HC10/GM), therapeutic index [4]	resistance to proteolysis by trypsin, remaining peptide by RP-HPLC (in words) [5]	Minimal Inhibitory Concentration (MIC) P. aeruginosa [KCTC 1637] [6]	Minimal Inhibitory Concentration (MIC) MRSA 3 [CCARM 3095] [7]	Minimal Inhibitory Concentration (MIC) MRSA 2 [CCARM 3090] [8]	Minimal Inhibitory Concentration (MIC) MRSA 1 [CCARM 3089] [9]	GM, geometric mean of the MIC values against four bacterial strains [10]	antimicrobial activity against E. coli (KCTC 1682) in the presence of trypsin (in words) [11]
N=C(N)NCCC[C@H](NC(=O)[C@H](Cc1c[n+](CCCCCCCc2ccccc2)cn1CCCCCCCc1ccccc1)NC(=O)[C@@H](N)CCCNC(=N)N)C(N)=O [HDAMP-1, Arg-His((CH2)7C6H5)2-Arg-NH2]	4 (4.9) µg/mL	2 (2.5) µg/mL	4 (4.9) µg/mL	10.3	fully resistant	4 (4.9) µg/mL	2 (2.5) µg/mL	2 (2.5) µg/mL	2 (2.5) µg/mL	3.5 (4.3) µg/mL	
N=C(N)NCCC[C@H](NC(=O)[C@H](Cc1c[n+](CCCc2ccccc2)cn1CCCc1ccccc1)NC(=O)[C@@H](N)CCCNC(=N)N)C(N)=O [HDAMP-2]	8 (11.4) µg/mL	8 (11.4) µg/mL	4 (5.7) µg/mL	56.9		16 (22.7) µg/mL	16 (22.7) µg/mL	32 (45.5) µg/mL	16 (22.7) µg/mL	9 (12.8) µg/mL	
N=C(N)NCCC[C@H](NC(=O)[C@@H](N)Cc1c[n+](CCCCCCCc2ccccc2)cn1CCCCCCCc1ccccc1)C(N)=O [HDAMP-3]	2 (3) µg/mL	2 (3) µg/mL	4 (6.1) µg/mL	6.3	fully resistant	4 (6.1) µg/mL	2 (3) µg/mL	2 (3) µg/mL	2 (3) µg/mL	3 (4.6). µg/mL	
N=C(N)NCCC[C@H](NC(=O)[C@H](Cc1cncn1CCCCCCCc1ccccc1)NC(=O)[C@@H](N)CCCNC(=N)N)C(N)=O [HDAMP-4]	4 (6.2) µg/mL	2 (3.1) µg/mL	32 (49.9) µg/mL	29.3		32 (49.9) µg/mL	16 (24.9) µg/mL	16 (24.9) µg/mL	16 (24.9) µg/mL	17.5 (27.3) µg/mL	
N=C(N)NCCC[C@@H](N)C(=O)N[C@@H](Cc1c[n+](CCCCCCCc2ccccc2)cn1CCCCCCCc1ccccc1)C(=O)N[C@H](CCCNC(=N)N)C(N)=O [HDAMP-5]	8 (9.8) µg/mL	8 (9.8) µg/mL	16 (19.6) µg/mL	10.8	fully resistant	16 (19.6) µg/mL	8 (9.8) µg/mL	8 (9.8) µg/mL	8 (9.8) µg/mL	12.0 (14.7) µg/mL	
N=C(N)NCCC[C@@H](NC(=O)[C@@H](N)Cc1c[n+](CCCCCCCc2ccccc2)cn1CCCCCCCc1ccccc1)C(N)=O [HDAMP-6]	2 (3) µg/mL	4 (6.1) µg/mL	4 (6.1) µg/mL	8	fully resistant	4 (6.1) µg/mL	2 (3) µg/mL	2 (3) µg/mL	2 (3) µg/mL	3.5 (5.3) µg/mL	
CC[C@H](C)[C@H](NC(=O)[C@H](CCCCN)NC(=O)[C@H](CCC(=O)O)NC(=O)[C@H](CCCCN)NC(=O)[C@H](CO)NC(=O)[C@H](CCCCN)NC(=O)[C@H](CCCNC(=N)N)NC(=O)[C@H](Cc1ccccc1)NC(=O)[C@H](Cc1ccccc1)NC(=O)[C@H](CC(=O)O)NC(=O)CNC(=O)[C@H](CC(C)C)NC(=O)[C@@H](N)CC(C)C)C(=O)NCC(=O)N[C@@H](CCCCN)C(=O)N[C@@H](CCC(=O)O)C(=O)N[C@@H](Cc1ccccc1)C(=O)N[C@@H](CCCCN)C(=O)N[C@@H](CCCNC(=N)N)C(=O)N[C@H](C(=O)N[C@H](C(=O)N[C@@H](CCC(N)=O)C(=O)N[C@@H](CCCNC(=N)N)C(=O)N[C@H](C(=O)N[C@@H](CCCCN)C(=O)N[C@@H](CC(=O)O)C(=O)N[C@@H](Cc1ccccc1)C(=O)N[C@@H](CC(C)C)C(=O)N[C@@H](CCCNC(=N)N)C(=O)N[C@@H](CC(N)=O)C(=O)N[C@@H](CC(C)C)C(=O)N[C@H](C(=O)N1CCC[C@H]1C(=O)N[C@@H](CCCNC(=N)N)C(=O)N[C@H](C(=O)N[C@@H](CCC(=O)O)C(=O)N[C@@H](CO)C(=O)O)[C@@H](C)O)C(C)C)[C@@H](C)CC)C(C)C)[C@@H](C)CC [LL-37]											completely lost their antimicrobial activities
N=C(N)NCCC[C@H](NC(=O)[C@H](Cc1c[nH]c2ccccc12)NC(=O)[C@@H](N)CCCNC(=N)N)C(N)=O [RWR-NH2, reference compound] (H-Arg-Trp-Arg-NH2)	>64 (>124) µg/mL	>64 (>124) µg/mL	>64 (>124) µg/mL			>64 (>124) µg/mL				>64 (>124) µg/mL	
WRWRWR-NH2 [(WR)3-NH2, reference compound]	8 (7.7) µg/mL	8 (7.7) µg/mL	4 (3.8) µg/mL	56.9		16 (15.3) µg/mL				9 (8.6) µg/mL	
